What all share (type): in vitro ADME
The target of one data set is T1, CYP450 1A2 (Homo sapiens, UniProt P05177).
T1 construct: 0.1 mg/mL human liver microsomes (HLM); from tissue; host or cells: human liver microsomes
T1 sequence (P05177 1-516): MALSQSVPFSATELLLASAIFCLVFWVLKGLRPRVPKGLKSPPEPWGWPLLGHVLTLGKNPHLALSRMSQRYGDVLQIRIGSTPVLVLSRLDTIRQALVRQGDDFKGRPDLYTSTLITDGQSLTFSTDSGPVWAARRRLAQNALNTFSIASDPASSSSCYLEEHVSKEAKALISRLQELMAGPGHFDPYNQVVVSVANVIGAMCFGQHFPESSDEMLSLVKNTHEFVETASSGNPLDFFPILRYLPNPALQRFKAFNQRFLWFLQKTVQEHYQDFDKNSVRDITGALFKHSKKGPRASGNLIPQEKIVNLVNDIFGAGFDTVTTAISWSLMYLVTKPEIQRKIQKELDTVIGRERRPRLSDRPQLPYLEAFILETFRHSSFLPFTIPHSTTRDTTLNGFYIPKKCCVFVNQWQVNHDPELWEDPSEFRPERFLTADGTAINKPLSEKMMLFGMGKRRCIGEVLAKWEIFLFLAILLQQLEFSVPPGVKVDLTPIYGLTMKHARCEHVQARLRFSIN
Description: Inhibition of cytochrome P450 enzymes in human liver microsomes, 1A2. How it is done: (§1) Inhibition of Cytochrome P450 Enzymes: A cocktail of substrates for cytochrome P450 enzymes (1A2: Phenacetin, 10 µM; 2C9: Diclofenac, 5 µM; 2D6: Dextromethorphan, 5 µM; 3A4:
(§2) Midazolam, 2 µM) were mixed for cocktail analysis. For P450 2C19, the substrate stock (Mephenytoin, 40 µM )and substrate mix were prepared separately for discrete analysis. The […]
(§3) positive control for pan-P450 inhibition (miconazole) was included alongside each test compound […]
(§4) A reaction mixture of 100 mM Kpi, pH 7.4, 0.1 mg/mL human liver microsomes (HLM) and Substrate Mix is prepared and aliquoted into a 96-deepwell block. Test compound and positive control (in duplicate) were then added such that the final concentration of test compound ranged from 0.1 – 30 µM. The plate was vortexed briefly and then pre-incubated at 37 °C while shaking for 15 minutes. The reaction was initiated with the addition of NADPH (1 mM final concentration). The incubation continued for 8 min and the reaction quenched by 2x volume of cold acetonitrile containing internal standard (50 nM carbamazepine). The plate was centrifuged for 10 minutes (4000 rcf, 4°C) and the resulting supernatant diluted 1:1 with water for LC/MS/MS analysis. A 12 point standard curve of substrate metabolites over the range of 0.98 nM to 2000 […]
(§5) Samples were analyzed via electrospray ionization (ESI) on an AB Sciex API-4000 (Foster City, CA) triple-quadrupole instrument that was coupled with Shimadzu LC-10AD pumps (Columbia, MD) and a Leap Technologies CTC PAL auto-sampler (Carrboro, NC). Analytes were separated by gradient elution using a Fortis C18 3.0 x 50 mm, 3 µm column (Fortis Technologies Ltd, Cheshire, UK) thermostated at 40°C. HPLC mobile phase A was 0.1% formic acid in water (pH unadjusted), mobile phase B was 0.1% formic acid in acetonitrile (pH unadjusted). The gradient […]
(§6) 90% B for 0.1 min and returned to 10% B in 0.1 min followed by a re-equilibration (0.9 min). The total run time was 2.5 min and the HPLC flow rate was 0.5 mL/min. The source temperature was set at 500°C and mass spectral analyses were performed using multiple reaction monitoring (MRM), with transitions specific for each compound utilizing a Turbo-Ionspray® source in positive ionization mode (5.0 kV spray voltage).
(§7) The IC50 values for each compound were obtained for the individual CYP enzymes by quantitating the inhibition of metabolite formation for each probe substrate. A 0 µM compound condition (or control) was set to 100% enzymatic activity and the effect of increasing test compound concentrations on enzymatic activity could then be calculated from the % of control activity.
(§8) Curves were fitted using XLfit 5.2.2 (four-parameter logistic model, equation 201) to determine the concentration that produces half-maximal inhibition (IC50).

A short description of data set [1]: Unbound fraction in brain (rat). Particulars: read-out: fu brain (rat).
A short description of data set [2]: Plasma protein binding, equilibrium dialysis (rat). Particulars: pH 7.4, rat plasma, read-out: fu plasma (r). The protocol:
(§9) page 13: at half log concentrations in DMSO were further diluted in assay buffer. The compounds or DMSO vehicle were added to cells and incubated for 2.5 min and an EC20 concentration of glutamate was added and incubated for 1 min. An ECmax concentration of glutamate was also added to cells that were incubated with DMSO vehicle to accurately calculate the EC20 calcium response. Data were normalized by subtracting the basal florescent peak before EC20 agonist addition from the maximal peak elicited by EC20 agonist and PAMs. Using GraphPad Prism 5.0, the concentration response curves were generated and the potencies of the mGlu1 PAMs were determined. DMPK Methods Plasma protein binding: The protein binding of each compound was determined in plasma via equilibrium dialysis employing RED Plates (ThermoFisher Scientific, Rochester, NY). Plasma was added to the 96 well plate containing test compound and mixed thoroughly for a final concentration of 5 µM. Subsequently, an aliquot of the plasma-compound mixture was transferred to the cis chamber (red) of the RED plate, with an phosphate buffer (25 mM, pH 7.4) in the trans chamber. The RED plate was sealed and incubated for 4 hours at 37°C with shaking. At completion, aliquots from each chamber were diluted 1:1 with either plasma (cis) or buffer (trans) and transferred to a new 96 well plate, at which time ice-cold acetonitrile containing internal standard (50 ng/mL carbamazepine) (2 volumes) was added to extract the matrices. The plate was centrifuged (3000 rcf, 10 min) and supernatants transferred and diluted 1:1 (supernatant: water) into a new 96 well plate, which was then sealed in preparation for LC/MS/MS analysis. Each compound was assayed in triplicate within the same 96-well plate. Fraction unbound was determined using the following equation F = Concbuffer u Conc plasma Intrinsic clearance: Human or rat hepatic microsomes (0.5 mg/mL) and 1 µM test compound were incubated in 100 mM potassium phosphate pH 7.4 buffer with 3 mM MgCl2 at 37°C with constant shaking. After a 5 min preincubation, the reaction was initiated by addition of NADPH (1 mM). At selected time intervals (0, 3, 7, 15, 25, and 45 min), aliquots were taken and subsequently placed into a 96-well plate containing cold acetonitrile with internal standard (50 ng/mL carbamazepine). Plates were then centrifuged at 3000 rcf (4° C) for 10 min, and the supernatant was transferred to a separate 96-well plate and diluted 1:1 with water for LC/MS/MS analysis. The in vitro half-life (T 1/2, min, Eq. 1), intrinsic clearance (CLint, mL/min/kg, Eq. 2) and subsequent predicted hepatic clearance (CLhep, mL/min/kg, Eq. 3) was determined S13
In general terms: In equilibrium dialysis free small molecules cross a membrane that holds back macromolecules.

Data set [3] in a line: Plasma protein binding, equilibrium dialysis (human). Particulars: pH 7.4, human plasma, read-out: fu plasma (h). The protocol: as §9
For a further data set, the target named is T2, CYP450 2C9 (Homo sapiens, UniProt P11712).
T2 construct: 0.1 mg/mL human liver microsomes (HLM); from tissue; host or cells: human liver microsomes
T2 sequence (P11712 whole entry): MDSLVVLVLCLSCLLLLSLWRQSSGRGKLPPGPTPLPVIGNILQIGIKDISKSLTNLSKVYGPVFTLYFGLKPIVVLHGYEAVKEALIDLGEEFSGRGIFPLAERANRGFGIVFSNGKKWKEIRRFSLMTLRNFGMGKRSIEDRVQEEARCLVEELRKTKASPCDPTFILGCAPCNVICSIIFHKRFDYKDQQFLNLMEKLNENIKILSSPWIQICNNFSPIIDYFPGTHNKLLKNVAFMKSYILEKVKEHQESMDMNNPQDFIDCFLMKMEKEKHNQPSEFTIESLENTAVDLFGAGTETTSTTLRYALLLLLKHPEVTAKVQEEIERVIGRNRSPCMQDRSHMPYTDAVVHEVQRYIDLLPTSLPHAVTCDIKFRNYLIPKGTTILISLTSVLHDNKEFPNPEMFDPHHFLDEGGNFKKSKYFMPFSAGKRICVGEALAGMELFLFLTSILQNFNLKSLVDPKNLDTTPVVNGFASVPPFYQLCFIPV
Description: Inhibition of cytochrome P450 enzymes in human liver microsomes, 2C9. The protocol: as §1, §2, §3, §4, §5, §6, §7, §8

Bounds are passed on as bounds.

By IC50 is commonly meant the concentration that inhibits the measured activity by half. A high value points to weaker potency. In the case of `Cn1cc(-c2cc(CNC(=O)c3cc(-c4ccco4)ccc3Cl)n(C)n2)cn1` [compound 4], the IC50 against CYP450 1A2 was 14.7 µM; against CYP450 2C9, above 30 µM. Moreover, the fraction unbound in data set [1] was determined as 0.044. Moreover, the fraction unbound at 4 h, 5 µM is 0.04 in data set [2] and 0.063 in data set [3].

In the case of `Cn1nc(-c2ccnn2C)cc1CNC(=O)c1cc(-n2cccn2)ccc1Cl` [compound 5], the IC50 at CYP450 1A2 and against CYP450 2C9 was above 30 µM each time. The fraction unbound in data set [1] was found to be 0.185. Besides, the fraction unbound at 4 h, 5 µM in data set [2] stood at 0.095; in data set [3], 0.143.

`Cc1nc2ccccc2cc1CNC(=O)c1cc(-n2cccn2)ccc1Cl` [compound 6]: the results for the IC50 on CYP450 1A2 and on CYP450 2C9 were 15.9 µM and 6.4 µM, respectively. The fraction unbound in data set [1] is 0.047. Moreover, the values for the fraction unbound at 4 h, 5 µM in data set [2] and in data set [3] were 0.054 and 0.037, respectively.

On to `Cc1nc2c(F)cccc2cc1CNC(=O)c1cc(-n2cccn2)ccc1Cl` [compound 7], for which the IC50 against CYP450 1A2 was determined as 11.2 µM; at CYP450 2C9, 5.9 µM. Moreover, the fraction unbound in data set [1] was 0.04. Moreover, the fraction unbound at 4 h, 5 µM in data set [2] came to 0.016; in data set [3], 0.053.

On to `Cc1nc(C2CC2)ccc1CNC(=O)c1cc(-n2cccn2)ccc1Cl` [compound 8], for which the 50% inhibitory concentration (IC50) was 26 µM against CYP450 1A2 and 22.3 µM against CYP450 2C9. Also, in data set [1], the fraction unbound turned out to be 0.062. In addition, the fraction unbound at 4 h, 5 µM in data set [2] came out at 0.097; in data set [3] it was 0.063.

Values taken from publication PMC11843613, “Further Optimization of the mGlu1 PAM VU6024578/BI02982816: Discovery and Characterization of VU6033685” (ACS Chemical Neuroscience, 2025).
